Read-outs that look alike come from different tables or passages of the source.
How the values were obtained:
E. coli = conditions: cited from earlier work; for Previously Reported Minimum Inhibitory Concentration (MIC, mg/L): different strains
E. coli W1485 [1] = conditions: for ΔF (Hz): 10 mg/L antibiotic, FIG. 27; for ΔR (Ω) / ΔR/R0 (%): 10 mg/L
Description: Experiments were also performed to study the concentration of the antibiotics and the length of the incubation time of antibiotics for their ability to kill or inhibit the growth of the bacteria. Different concentrations of each antibiotic were added to 5×10^8 cells/mL E. coli respectively, and then incubated at 37° C. and 280 rpm on the shaker. After 3 hours of incubation, 1 μL of antibiotic treated E. coli culture was added to the Con A sensor cell containing 1 mL of 10 mM HEPES buffer (pH 7.4) for QCM measurements, respectively. […] 1 μL of each antibiotic treated E. coli was taken at different incubation times (i.e., 0, 1, 2, 3 hours) and was added into the Con A senor cell containing 1 mL of 10 mM HEPES buffer (pH 7.4) for QCM measurements.
In most studies dealing with antibiotic-induced LPS release, bioreactive endotoxin has been measured by means of the Limulus amoebocyte lysate (LAL) assay, which involves an enzymatic reaction triggered by the core region of LPS. […] However, some antibiotics (i.e., aminoglycoside) are known to suppress the LAL reaction, which limits the application of LAL. Reproducible ELISA also can be used to detect LPS. […] A QCM is known to provide a very sensitive mass measuring device and dispense with the time- and cost-demanding labeling step and also eliminates any possible interference of the “true” binding process due to the presence of the labels.

E. coli W1485 [2] = conditions: for ΔF (Hz): 30 mg/L antibiotic added after E. coli attached to sensor; for ΔF (Hz) / ΔR (Ω) / ΔR/R0 (%): FIG. 25A; for ΔR (Ω) / ΔR/R0 (%): 30 mg/L antibiotic added after E. coli attached; for frequency after antibiotic addition: 2 hour period after addition, from 350, 350 and 370 Hz before addition; for reduction of binding to (LPS activity, real time analysis): 1 hour time point
Description: The gold QCM electrode consisted of a thin AT-cut quartz crystal wafer with vapor deposited gold electrode on each side (10 MHz, non-polished with 1000 A gold, geometric area is 0.22 cm2, International Crystal Company). For all QCM test, the gold electrode was mounted on the side of a KeI-F cell chamber. Frequency monitoring was performed using a Maxtek RQCM quartz crystal microbalance research instrument. Baseline was recorded in 1 mL of 10 mM HEPES buffer containing 1 mM Ca^2+ and 1 mM Mn^2+. Each of the bacterial samples to be analyzed was then added into the detection sensor cell after stabilization of resonance frequency (shift less than 1 Hz·min-1). A small magnetic stir bar was used to increase the mass transfer through convection. The frequency changes (ΔF) of the QCM were monitored using a network/spectrum/impedance analyzer (Agilent 4395A) controlled by a PC via an Intel card.
(§1) For the real time measurements, Con A sensor was mounted in a biosensor cell containing 1 mL of 10 mM HEPES buffer (pH 7.4). Real time QCM measurements were obtained for each experimental step. First, 1 μL of 5×10^8 cells/mL E. coli obtained from the stationary phase was added into the biosensor cell. When frequency reached a constant value, it was washed with 1 mL of 10 mM HEPES buffer to remove the unbound E. coli. […] The frequency changes vs time and the damping resistance vs time were recorded by QCM.
Different types of antibiotics have differing abilities to alter the LPS properties and subsequent reduction in their binding. This can be used as an indicator for the antibiotic effects for killing the bacteria or inhibiting their growth. The biosensor ability to quantitatively measure these parameters real time was tested. For that purpose, the Con A sensor was exposed to 1 μL of 5×10^8 cells/mL E. coli to capture the bacteria via Con A-LPS binding. The unbound E. coli was removed by washing with 1 mL of 10 mM HEPES buffer.

E. coli W1485 [3] = assay: Real time experiment, SWV signal after 3 hours of incubation with antibiotic; assay type: cell-based, Escherichia coli; conditions: 30 mg/L antibiotic; for SWV sensor signal: without antibiotic 0.37 μA
Description: Electrochemical measurements were performed on a GAMRY 4-channel electrochemical workstation. A three-electrode electrochemical cell composed of a Con A sensor as working electrode, platinum wire as counter electrode and Ag/AgCl (saturated KCl) electrode as reference electrode, was used. Square wave voltammetric measurements were performed under ambient conditions (21-23° C.). Each measurement had been repeated at least three times with independently prepared Con A sensors.
as §1
Different types of antibiotics have differing abilities to alter the LPS properties and subsequent reduction in their binding. This can be used as an indicator for the antibiotic effects for killing the bacteria or inhibiting their growth. The biosensor ability to quantitatively measure these parameters real time was tested. For that purpose, the Con A sensor was exposed to 1 μL of 5×10^8 cells/mL E. coli to capture the bacteria via Con A-LPS binding. The unbound E. coli was removed by washing with 1 mL of 10 mM HEPES buffer. […] In the three separate measurements shown in FIG. 25A, it can be clearly seen that the initial parts of the curves which are related to E. coli immobilization are almost coinciding to each other. This real time QCM measurement also allows us to observe the reproducibility of the sensor performance. In the last parts of the curves, when different antibiotics are added, their variable effects in killing the bacteria and reducing their binding caused a variable shift of the frequency. This shift was opposite in direction to what was obtained by bacterial addition which is indicative of reduced binding. These responses (shown in the inset) provided the quantitative details of this effect. […] Due to real time nature of this experiment, the frequency and damping resistance change were much smaller than that of FIGS. 24A and 24B. This confirms that the antibiotic drug effect on LPS is a slow process but the high sensitivity sensor disclosed herein allows such subtle changes to be measured. Moreover, the results of the QCM and Electrochemical measurements are validating each other again. […]

| SMILES | Previously Reported Minimum Inhibitory Concentration (MIC, mg/L) (E. coli) | ΔF (Hz) (E. coli W1485 [1]; incubation time 0 h) | ΔF (Hz) (E. coli W1485 [1]; incubation time 1 h) | ΔF (Hz) (E. coli W1485 [1]; incubation time 2 h) | ΔF (Hz) (E. coli W1485 [1]; incubation time 3 h) | ΔR (Ω) (E. coli W1485 [1]; 0 h) | ΔR/R0 (%) (E. coli W1485 [1]; 0 h) | ΔR (Ω) (E. coli W1485 [1]; 1 h) | ΔR/R0 (%) (E. coli W1485 [1]; 1 h) | ΔR (Ω) (E. coli W1485 [1]; 2 h) | ΔR/R0 (%) (E. coli W1485 [1]; 2 h) | ΔR (Ω) (E. coli W1485 [1]; 3 h) | ΔR/R0 (%) (E. coli W1485 [1]; 3 h) | ΔF (Hz) (E. coli W1485 [2]) | ΔR (Ω) (E. coli W1485 [2]) | ΔR/R0 (%) (E. coli W1485 [2]) | frequency after antibiotic addition (E. coli W1485 [2]; 30 mg/L) | reduction of binding to (LPS activity, real time analysis) (E. coli W1485 [2]; 30 mg/L) | SWV sensor signal (E. coli W1485 [3]) | other results |
| --- | --- | --- | --- | --- | --- | --- | --- | --- | --- | --- | --- | --- | --- | --- | --- | --- | --- | --- | --- | --- |
| CO/N=C(\C(=O)N[C@@H]1C(=O)N2C(C(=O)O)=C(CSc3nc(=O)c(=O)[nH]n3C)CS[C@H]12)c1csc(N)n1 [ceftriaxone] | 0.024 to 0.195 mg/L | 356 Hz | 256 Hz | 223 Hz | 187 Hz | 15 Ω | 4.9% | 15.5 Ω | 5.0% | 16.1 Ω | 5.2% | 16.6 Ω | 5.4% | −25 Hz | −2.2 Ω | −0.7% | 325 Hz | 93% | 0.92 μA | MIC (E. coli; E. coli (47)): 0.0125 to 25 µg/mL; MIC (E. coli; E. coli (305)): 0.06 to 8 µg/mL; decrease in frequency (fold of value before antibiotic) (E. coli W1485 [2]; 30 mg/L, 2 hour period after antibiotic addition): 0.93 fold; reduction of binding to (LPS activity, real time analysis) (E. coli W1485 [2]; 30 mg/L, listed as Ceftriaxone): 93%; SWV sensor signal, fold of signal without antibiotic (E. coli W1485 [3]): 2.50 fold |
| O=C(O)c1cn(C2CC2)c2cc(N3CCNCC3)c(F)cc2c1=O [ciprofloxacin] | 0.0075 to 0.015 mg/L |  |  |  |  | 15 Ω | 4.9% | 17 Ω | 5.6% | 18.6 Ω | 6.1% | 14 Ω | 4.6% |  | −2.0 Ω | −0.6% | 320 Hz | 91% | 0.89 μA | reduction of binding to (LPS activity, real time analysis) (E. coli W1485 [2]; 30 mg/L, listed as Ciprofloxacin): 91% |
| CN(C)[C@@H]1C(O)=C(C(N)=O)C(=O)[C@@]2(O)C(O)=C3C(=O)c4c(O)cccc4[C@@](C)(O)[C@H]3C[C@@H]12 [tetracycline] |  | 378 Hz | 329 Hz | 279 Hz | 244 Hz | 16 Ω | 5.3% | 17 Ω | 5.6% | 16 Ω | 5.2% | 15.6 Ω | 5.1% | −20 Hz | −2.0 Ω | −0.6% | 350 Hz | 95% | 0.65 μA | reduction of binding to (LPS activity, real time analysis) (E. coli W1485 [2]; 30 mg/L, listed as Tetracycline): 95% |
